The text below walks through data of patent US5512561A, “Aryl substituted dibenzoxazepine compounds, pharmaceutical compositions and methods of use” (G. D. Searle & Co., priority 1995, dated 1996).

Test [1] deals with isolated smooth muscle preparations. The note with it: cited from earlier work.
Another test has as its system mice. The test is described as follows: Writhing Assay (PBQ-induced writhing, analgesia in mice). In kind it is in vivo, mice (Charles River male albino). The settings on record: Mus musculus, po, 25 min; 30 mg per kilogram, intragastric; PBQ i.p. 25 minutes later; writhes <= one-half the median of saline control; read-out: WRITHING ASSAY Number Out of Nine or Ten (mice in which test compound produced analgesia) (converted). The text has this: The Writhing Assay is one of the most widely-used experimental procedures for measuring the analgesic activity of different narcotic and nonnarcotic analgesic agents, and involves the continuous, chemically-induced pain of visceral origin to an animal, such as a mouse or rat. Gyires et al., Arch. int. […] Vander Wende et al., Fed. […] Chemicals which may be used to induce this pain include phenylbenzoquinone (PBQ) and acetic acid. As a result of the chemical irritation to the animal, a characteristic stretching and writhing of the animal (dorsiflexion of the animal's back, extension of its hindlimbs and the strong contraction of its abdominal musculature) will generally occur. […] Drugs which reduce the number of writhes of the animal appear to restore the normal nociceptive threshold of the animal.
Charles River male albino mice, weighing 20 to 30 grams were used in this assay.
Ten mice which were given saline in place of a test compound of the invention were used as a control group.
Five minutes later, each mouse was individually placed into a glass beaker for observation, and the number of writhes occurring during the following ten-minute period was counted.

The subject of test [2] is prostaglandin E2 -induced contractions of segments of guinea pig ileum. As to the kind of experiment: Prostaglandin (PGE) Antagonism Assay in guinea pig ileum. The class given is cell-based. The settings on record: dose ratio of EC50 doses of prostaglandin E2; initial test compound concentration 3 micromolar; 37° C. As for the experimental part: In order to determine the effectiveness of several of the compounds of the present invention ("test compounds") as prostaglandin E2 antagonists,a prostaglandin antagonism assay was conducted, as described below, to determine the ability of these compounds to inhibit prostaglandin E2 -induced contractions of segments of guinea pig ileum. […] Male albino guinea pigs weighing 200 to 500 grams were sacrificed by cervical dislocation. The ilea were then quickly removed from the guinea pigs and placed in a modified Tyrode solution, a solution which is known to those skilled in the art, containing one-half of the usual amount of magnesium ions. Segments of ileum about 2 cm long were then cut and mounted in a 10-mL tissue bath containing the modified Tyrode solution. […] Data for a control prostaglandin E2 dose response curve plotting concentration of prostaglandin E2 versus the intensity of contractions, detected isotonically, was then obtained by experimentally adjusting the dose of the prostaglandin E2 being injected into the tissue bath, in a manner known by those of skill in the art. Solutions or suspensions containing an initial concentration (3 micromolar) of a test compound in modified Tyrode solution ("test solutions/suspensions") were then separately substituted for the control bath solution. Each test solution/suspension was then kept in constant contact with the ileum tissue, except for brief periods to drain the bath in preparation for rinsing with fresh test solution/suspension. A second prostaglandin E2 dose response curve was then generated for prostaglandin E2 in the presence of a test compound. A dose ratio of EC50 doses was then calculated from the results of each test in a manner known by those of skill in the art.

Where a name gives a salt, the structure may show the parent alone.

In the case of `CC(=O)NNC(=O)N1Cc2ccccc2Oc2ccc(Cl)cc21` [SC-19220], the “inhibition of the stimulant actions of prostaglandins on isolated smooth muscle preparations” value in test [1] is recorded as “inhibit the stimulant actions of prostaglandins”.
Turning to `O=C(Cc1ccccc1)NNC(=O)N1Cc2ccccc2Oc2ccc(Cl)cc21` [SC-18637], in test [1], the “inhibition of the stimulant actions of prostaglandins on isolated smooth muscle preparations” value is “inhibit the stimulant actions of prostaglandins”.
Take `O=C(NCc1ccncc1)c1ccc(CN2Cc3ccccc3Oc3ccc(Cl)cc32)cn1` [Example 34, 5-(8-chlorodibenzb,f! 1,4!oxazepin-10(11H)yl)methyl!-N-(4-pyridinylmethyl)-2-pyridinecarboxamide, monohydrochloride]: in the test on mice, the responders at 30 mg/kg is 20%. In addition, the “PGE ANTAGONISM IN GUINEA PIG ILEUM Dose Ratio (DR)” value in test [2] came out at 1.16.
For `O=C(NCc1ccncc1)c1cccc(C(=O)N2Cc3ccccc3Oc3ccc(Cl)cc32)c1` [Example 16, 3-f 8-chlorodibenz b,f! 1,4!oxazepin-10(11H)yl)carbonyl!-N-(4-pyridinylmethyl)benzamide, monohydrochloride] the same measures were 80% and 4.67.
